# Measurements from patent US12053528B2, “Topical formulations comprising polyoxyl lipid or fatty acid and polyalkoxylated alcohol, and uses thereof” (Sun Pharmaceutical Industries Limited, priority 2015, dated 2024).
# Test: Ocular tissue distribution of RX-10045 nanomicellar formulations (LC-MS/MS)
# Type: in vivo, New Zealand White Rabbits
# Settings: after topical RX-10045 formulations 4x/day for 5 days
# Procedure: A study is conducted in rabbits to test the tolerance and ocular tissue distribution of two nanomicellar formulations of active compound against matching placebos (Table 7a and 7b) and balanced saline solution (BSS). Healthy New Zealand female white rabbits (2-3 kg) are used for this study. One drop (approximately 35 μL) of study drug is applied o.d. 4×/day at two hour intervals for 5 days. One drop of BSS is applied to the contralateral eye.
# Selected ocular fluids/tissues (aqueous humor, vitreous humor, conjunctiva, cornea, iris-ciliary body, lens, retina/choroid, and sclera) collected from two rabbits each in the active agent (0.15% in HCO-60, 0.1 in HCO-40) treatment groups, and from one rabbit in each of the matching placebo groups, are assayed for active compound by liquid chromatography-tandem mass spectrometry (LC-MS/MS). Warfarin-d5 and 5-HDA are used as internal standards for the analysis of RX-10045 and its active metabolite, RX-10008, respectively, in aqueous humor and vitreous humor. For the other ocular tissues (solid tissues), warfarin-d5 and phenyl acetic acid-d5 (PAA-d5) are used as the internal standards for compound 1001 and RX-10008, respectively. The analytical range for the solid tissues is 0.125-100 ng. The results of the solid tissue analyses are converted to ng/g by correcting for the amount of tissue analyzed.
compound,measurement,value
C#CC[C@@H](O)/C=C/C=C/C#C[C@@H](O)CCCC(=O)OC(C)C [compound 1001],Compound 1001 in the majority of ocular tissues,either not detected or is below the quantitation limit of the assay
same,Concentrations of the compound 1001 ester prodrug in the sclera and conjunctiva,"sporadic, relatively low"
same,Hydrolysis to active metabolite RX-10008 in ocular tissues,rapidly hydrolyzed
